Laboratory results reported in US20220204512A1, “SUBSTITUTED FUSED BICYCLIC DERIVATIVE, PREPARATION METHOD THEREFOR, AND APPLICATION THEREOF IN MEDICINES” (Jiangsu Hengrui Medicine Co., Ltd., priority 2019, published 2022).

Legend:
[1] = Pharmacokinetics assay in mice; type: in vivo; conditions: female, mouse, po, C57 mice, intragastric, 2 mg/kg, plasma
Procedure: Mice were used as test animals. The drug concentration in plasma at different time points was determined by LC/MS/MS method after administration of the compounds 1-P2, 2-P2, 4-P2, 6-P2, 9-P2, 10-P2 and 11-P2. The pharmacokinetic behavior of the compounds of the present disclosure was studied and evaluated in mice.
Sixty-three C57 mice (female, equally divided into seven groups) were purchased from Shanghai Jiesijie Laboratory Animal Co., LTD. (Certificate No.: SCXK(Shanghai)2013-0006).
A certain amount of the test compound was weighed, dissolved in 5% of DMSO by volume and 5% of tween 80, followed by the additon of 90% of normal saline to prepare a 0.1 mg/mL colorless, clear and transparent solution.
After an overnight fast, C57 mice were intragastrically administered the test compound at an administration dose of 2 mg/kg and an administration volume of 0.2 ml/10 g.
The mice were intragastrically administered the test compounds. 0.1 ml of blood was taken before the administration and at 0.25, 0.5, 1.0, 2.0, 4.0, 6.0, 8.0, 11.0 and 24.0 hours after the administration. The samples were stored in heparinized tubes, and centrifuged for 10 minutes at 3500 rpm to separate the blood plasma. The plasma samples were stored at −20° C.
The content of the test compound in the plasma of mice after intragastrical administration of the test compound at different concentrations was determined: 25 μL of […] plasma at each time point after the administration was taken, followed by the addition of 50 μL of the internal standard camptothecin solution (100ng/mL) and 200 μL of acetonitrile. The resulting solution was vortex-mixed for 5 minutes, and centrifuged for 10 minutes (4000 rpm). 4 μL of the supernatant was taken from the plasma samples for LC/MS/MS analysis.

ERK1 = target: T1, ERK1 (Homo sapiens, UniProt P27361); assay: ERK1 enzyme activity test (ADP-Glo Kinase Assay); type: biochemical; conditions: ADP-Glo chemiluminescence
T1 construct: purchased R&D 1879-KS-010
T1 sequence (P27361 whole entry): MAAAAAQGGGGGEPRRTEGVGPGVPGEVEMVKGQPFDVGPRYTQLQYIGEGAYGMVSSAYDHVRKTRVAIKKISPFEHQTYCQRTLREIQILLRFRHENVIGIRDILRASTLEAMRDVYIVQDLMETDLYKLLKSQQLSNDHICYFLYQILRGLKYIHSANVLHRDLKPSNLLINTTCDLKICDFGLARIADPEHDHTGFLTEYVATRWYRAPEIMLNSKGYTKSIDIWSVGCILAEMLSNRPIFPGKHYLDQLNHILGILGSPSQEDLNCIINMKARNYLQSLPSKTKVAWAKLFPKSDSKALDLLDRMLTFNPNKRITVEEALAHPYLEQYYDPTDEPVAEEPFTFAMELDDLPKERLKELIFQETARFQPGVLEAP
Procedure: (§1) The purpose of this experiment is to detect the inhibitory ability of the compounds of the present disclosure on the ERK1 enzyme activity and to evaluate the in vitro activity of the compounds based on the IC50. The ADP-Glo™ Kinase Assay Kit was used in this experiment. The substrate was phosphorylated under the action of the enzyme and ADP was produced at the same time. The ADP-Glo reagent was added to remove the unreacted ATP in the reaction system, and the ADP produced by the reaction was detected with kinase detection reagent. In the presence of the compound, the inhibition rate of the compound was calculated by measuring the signal value.
Preparation of Enzyme and substrate: ERK1 (1879-KS-010, R&D) and substrate (AS-61777, anaspec) were prepared to 0.75 ng/p1 and 100 μM respectively in a buffer, and then the enzyme solution and the substrate solution were prepared into a mixed solution at a volume ratio of 2:1 for later use. ATP was diluted to 300 μM with buffer. The compound was dissolved in DMSO (dimethyl sulfoxide, Shanghai Titan Scientific Co., Ltd.) to prepare a stock solution with an initial concentration of 20 mM, and then Bravo was used to prepare the compound. Finally, 3 μL of a mixed solution of enzyme and substrate, and 1 μL of different concentrations of the compound (the initial concentration was 50 μM, 4-fold dilution) were added to each well of the 384-well plate, and the plate was incubated at 30° C. for 10 minutes, and finally 1 μL of 300 μM ATP solution was added to each well, and the plate was incubated at 30° C. for 2 hours. Then 5 μL of ADP-Glo was added, and the plate was incubated at 30° C. for 40 minutes. Then 10 μL of kinase detection buffer was added, and the plate was incubated at 30° C. for 40 minutes. The 384-well plate was taken out and placed in a microplate reader (BMG labtech, PHERAstar FS), and the chemiluminescence was measured by a microplate reader.
(§2) Microsoft Excel, Graphpad Prism 5 was used to process and analyze the data.

ERK2 = target: T2, ERK2 (Homo sapiens, UniProt P28482); assay: ERK2 enzyme activity test (ADP-Glo Kinase Assay); type: biochemical; conditions: ADP-Glo chemiluminescence
T2 construct: purchased R&D 1879-KS-010
T2 sequence (P28482 2-360 limits assumed): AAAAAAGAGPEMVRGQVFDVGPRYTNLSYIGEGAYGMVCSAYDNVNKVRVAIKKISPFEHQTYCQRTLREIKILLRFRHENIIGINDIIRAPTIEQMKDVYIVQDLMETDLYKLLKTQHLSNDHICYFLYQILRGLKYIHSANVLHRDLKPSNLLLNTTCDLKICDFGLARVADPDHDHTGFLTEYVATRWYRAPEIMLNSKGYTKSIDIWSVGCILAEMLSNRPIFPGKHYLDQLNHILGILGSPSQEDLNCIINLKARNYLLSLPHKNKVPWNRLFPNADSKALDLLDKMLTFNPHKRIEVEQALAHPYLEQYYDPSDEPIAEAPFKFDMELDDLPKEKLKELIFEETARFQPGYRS
Procedure: as §1, with “the ERK2” for “the ERK1”, “enzyme activity,” for “enzyme activity”
Preparation of enzyme and substrate: ERK2 (1879-KS-010, R&D) and substrate (custom peptide, Gill Biochemical) were prepared to 0.75 ng/ml and 1500 μM in a buffer (40 mM Tris, 20 mM MgCl2, 0.1 mg/ml BSA, 50 μM DTT), and then the enzyme solution and the substrate solution were prepared into a mixed solution at a volume ratio of 2:1 for later use. ATP was diluted to 500 μM with buffer. The compound was dissolved in DMSO (dimethyl sulfoxide, Shanghai Titan Scientific Co., Ltd.) to prepare a stock solution with an initial concentration of 20 mM, and then Bravo was used to prepare the compound. Finally, 3 μL of a mixed solution of enzyme and substrate, and 1 μL substrate of different concentrations of the compound (the initial concentration is 50 μM, 4-fold dilution) were added to each well of the 384-well plate, and the plate was incubated at 30° C. for 10 minutes, and finally 1 μL 500 μM ATP solution was added to each well, and the plate was incubated at 30° C. for 2 hours. Then 5 μL of ADP-Glo was added, and the plate was incubated at 30° C. for 40 minutes. Then 10 μL of kinase detection buffer was added, and the plate was incubated at 30° C. for 40 minutes. The 384-well plate was taken out and placed in a microplate reader (BMG labtech, PHERAstar FS), and the chemiluminescence was measured by a microplate reader.
as §2

Colo205 cells = assay: In vitro proliferation inhibition test on Colo205 tumor cells (CellTiter-Glo); type: cell-based; conditions: Homo sapiens, COLO 205, 72 h; Colo205 cell proliferation, 3 days of culture, CTG
Procedure: The purpose of this experiment is to test the inhibitory activity of the compounds of the present disclosure on the proliferation of Colo205 cells (CCL-222, ATCC) in vitro. The cells were treated in vitro with different concentrations of the compounds. After 3 days of culture, the cell proliferation was tested with CTG (CellTiter-Glo® Luminescent Cell Viability Assay, Promega, Catalog No. G7573) reagent, and the in vitro activity of the compounds was evaluated according to the ICso value.
In the following, the in vitro proliferation inhibition test method of Colo205 cells is taken as an example to illustrate the method for testing the in vitro proliferation inhibitory activity of the compounds of the present disclosure on tumor cells. This method is also applicable to, but not limited to, the in vitro proliferation inhibitory activity test on other tumor cells.
Colo205 cells were digested, centrifuged and then resuspended. The single cell suspension was mixed well, and the density of viable cells was adjusted to 5.0×10^4 cells/ml with cell culture medium (RPMI1640+2% FBS), and 95 μL/well was added to a 96-well cell culture plate. Only 100 μL medium was added to the peripheral wells of the 96-well plate. The culture plate was incubated in an incubator for 24 hours (37° C., 5% CO2).
The compound was dissolved in DMSO (dimethyl sulfoxide, Shanghai Titan Scientific Co., Ltd.) and prepared as a stock solution with an initial concentration of 20 mM. The initial concentration of the small molecule compound was 2 mM, and then 4-fold diluted into 9 points, and the 10th point was DMSO. Another 96-well plate was taken, and 90 μL of cell culture medium (RPMI1640+2% FBS) was added to each well. Then 10 μL of different concentrations of the test sample was added to each well. The mixture was mixed well, and then 5μL of different concentrations of the test sample was added to the cell culture plate. Each sample has two duplicate holes. The culture plate was incubated in the incubator for 3 days (37° C., 5% CO2). The 96-well cell culture plate was taken out. 50 μL solution of CTG was added to each well, and the plate was incubated for 10 minutes at room temperature. In a microplate reader (BMG labtech, PHERAstar FS), chemiluminescence was measured with the microplate reader.
as §2

Vd/F ([1]; read-out: Apparent distribution volume Vz/F) | AUC ([1]; read-out: Area under curve AUC) | CL/F ([1]; read-out: Clearance CLz/F) | half-life ([1]; read-out: Half-life T1/2 (converted)) | Cmax ([1]; read-out: Plasma concentration Cmax) | MRT ([1]; read-out: Residence time MRT) | IC50 (ERK1) | IC50 (ERK2) | IC50 (Colo205 cells) | Structure (SMILES)
3.75 L/kg | 1110 ng·h/mL | 29.7 mL/min/kg | 1.46 h | 501 ng/mL | 1.84 h | 7 nM | 1.5 nM | 17.4 nM | COc1cc(F)cc([C@@H](CO)NC(=O)[C@@H](C)N2CCc3cc(-c4nc(Nc5ccnn5C)ncc4C)cn3C2=O)c1 [Example 1-P2, (R)-N-((S)-1-(3-Fluoro-5-methoxyphenyl)-2-hydroxyethyl)-2-(6-(5-methyl-2-((1-methyl-1H-pyrazol-5-yl)amino)pyrimidin-4-yl)-1-oxo-3,4-dihydropyrrolo[1,2-c]pyrimidin-2(1H)-yl)propanamide]
– | – | – | – | – | – | 4.6 nM | 1.75 nM | – | COc1cc(F)cc([C@@H](CO)NC(=O)[C@@H](C)N2CCn3cc(-c4nc(NC5CCOCC5)ncc4Cl)nc3C2=O)c1 [Example 3-P2, (R)-2-(2-(5-Chloro-2-((tetrahydro-2H-pyran-4-yl)amino)pyrimidin-4-yl)-8-oxo-5,6-dihydroimidazo[1,2-a]pyrazin-7(8H)-yl)-N-((S)-1-(3-fluoro-5-methoxyphenyl)-2-hydroxyethyl)propanamide]
– | – | – | – | – | – | 8.5 nM | 1.1 nM | 100 nM | Cc1cccc([C@@H](CO)NC(=O)[C@@H](C)N2CCn3cc(-c4nc(Nc5ccnn5C)ncc4C)cc3C2=O)c1 [Example 10-P2, (R)-N-((S)-2-Hydroxy-1-(m-tolyl)ethyl)-2-(7-(5-methyl-2-((1-methyl-1H-pyrazol-5-yl)amino)pyrimidin-4-yl)-1-oxo-3,4-dihydropyrrolo[1,2-a]pyrazin-2(1H)-yl)propanamide]
– | – | – | – | – | – | 9.4 nM | 0.9 nM | 82 nM | COc1cc(F)cc([C@@H](CO)NC(=O)[C@@H](C)N2CCn3cc(-c4nc(Nc5ccnn5C)ncc4C)cc3C2=O)c1 [Example 12-P2, (R)-N-((S)-1-(3-Fluoro-5-methoxyphenyl)-2-hydroxyethyl)-2-(7-(5-methyl-2-((1-methyl-1H-pyrazol-5-yl)amino)pyrimidin-4-yl)-1-oxo-3,4-dihydropyrrolo[1,2-a]pyrazin-2(1H)-yl)propanamide]
– | – | – | – | – | – | – | 2.8 nM | 31 nM | C[C@H](C(=O)N[C@H](CO)c1cccc(Cl)c1)N1CCn2cc(-c3nc(NC4CCOCC4)ncc3Cl)cc2C1=O [Example 13-P2, (R)-2-(7-(5-Chloro-2-((tetrahydro-2H-pyran-4-yl)amino)pyrimidin-4-yl)-1-oxo-3,4-dihydropyrrolo[1,2-a]pyrazin-2(1H)-yl)-N—((S)-1-(3-chlorophenyl)-2-hydroxyethyl)propanamide]
– | – | – | – | – | – | – | 4.2 nM | 54 nM | C[C@H](C(=O)N[C@H](CO)c1cccc(Cl)c1)N1CCc2cc(-c3nc(NC4CCOCC4)ncc3Cl)cn2C1=O [Example 16-P2, (R)-2-(6-(5-Chloro-2-((tetrahydro-2H-pyran-4-yl)amino)pyrimidin-4-yl)-1-oxo-3,4-dihydropyrrolo[1,2-c]pyrimidin-2(1H)-yl)-N-((S)-1-(3-chlorophenyl)-2-hydroxyethyl)propanamide]
– | – | – | – | – | – | 22 nM | 3.1 nM | 38 nM | COc1cc(F)cc([C@@H](CO)NC(=O)[C@@H](C)N2CCn3cc(-c4nc(NC5CCOCC5)ncc4C)cc3C2=O)c1 [Example 17-P2, (R)-N-((S)-1-(3-Fluoro-5-methoxyphenyl)-2-hydroxyethyl)-2-(7-(5-methyl-2-((tetrahydro-2H-pyran-4-yl)amino)pyrimidin-4-yl)-1-oxo-3,4-dihydropyrrolo[1,2-a]pyrazin-2(1H)-yl)propanamide]
– | – | – | – | – | – | – | 6.7 nM | 67 nM | Cc1cccc([C@@H](CO)NC(=O)[C@@H](C)N2CCn3cc(-c4ccnc(NC5CCOCC5)n4)cc3C2=O)c1 [Example 19-P2, (R)-N-((S)-2-Hydroxy-1-(m-tolyl)ethyl)-2-(1-oxo-7-(2-((tetrahydro-2H-pyran-4-yl)amino)pyrimidin-4-yl)-3,4-dihydropyrrolo[1,2-a]pyrazin-2(1H)-yl)propanamide]
